The values that follow come from patent US11661439B2, “Peptide hydrogels and use thereof” (The United States of America, as represented by the …, priority 2017, dated 2023).

Data set [1] can be described thus: Rheology of cell-encapsulating gels after 4 days of 3D culture. Format: physicochemical. As to conditions: 1000% strain for 30 s every 10 min. An excerpt:
FIGS. 7A-7E. Three-dimensional culturing of HDFs. HDFs were 3D cultured with 0.5 wt % peptide hydrogels or 0.3 wt % collagen hydrogels with Essential 8 Medium. (7A) Live and dead cells were visualized on days 1, 4, and 7, using calcein AM and ethidium homodimer-1 staining, respectively (scale bar=100 μm). (7B) Cell growth was monitored by quantifying cell viability on days 1, 4, and 7. Data are represented as mean±SD of three independent replicates. (7C) A pseudo-colored composite of varying depths (0-500 μm) of Z-stacked images of live cells stained with calcein AM in 0.5% AcVES3-RGDV hydrogels on day 4 (scale bar=100 μm). […] (7D) Z-stack image of cytoskeleton organization in the hydrogels on day 4 with actin and nuclei (scale bar=100 μm) stained. (7E) Shear-thinned recovery of cells encapsulated in 0.5 wt % AcVES3-RGDV hydrogel after 3D culturing for 4 days. Hydrogels were shear-thinned at 1000% strain for 30 s (indicated by dashed line) every 10 min and allowed to recover by reducing the strain to 0.2%.
Rheology measurements of cell-encapsulating gels after 4 days of 3D cell culturing were performed using 8-mm stainless steel parallel plate geometry with a 0.5 mm gap height. A cell-encapsulating gel (100 μL) in a transwell insert (for 24 well plates, Corning) was transferred to the rheometer plate previously equilibrated at 37° C. and oil was placed around the sample. […]

The subject of data set [2] is human dermal fibroblasts (HDFs). Kind of data set: 2D cell culture of HDFs on gel surfaces. It counts as cell-based. As to conditions: for cell adhesion of HDFs on gel surface: Essential 8 Medium or serum-free DMEM. As for the experimental part: 2D cell culture on peptide gels. Peptides were initially dissolved in water at 1 wt % on ice and mixed with an equal volume of ice-cold 2×HEPES buffer (50 mM HEPES, 300 mM NaCl, pH 7.4). The peptide solution (50 μL per well) was transferred to a non-tissue culture treated 96-well plates and incubated at 37° C. to initiate gelation. After 1 hour, HDFs (2×10^4 cells per 200 μL, per well) in serum-free DMEM, 10% FBS supplemented DMEM, or Essential 8 Medium (Thermo Fisher Scientific) were seeded on the peptide gels and cultured for 4 days. Bovine type I collagen gels (0.3 wt %, 50 μL per well) were prepared in 96-well plates following manufacturer's instructions.
Cell viability assay. Cell viability was evaluated by live and dead cell staining after 2D and 3D cell culture. Serum-free DMEM containing 1 μM calcein-AM and 2 μM ethidium homodimer-1 was added to the cells (200 μL per well for 2D culture and 500 μL each to the top and bottom of the gels for 3D culture). After incubation at 37° C. for 30 min, live and dead cells were visualized using EVOS FL Auto Cell Imaging System (Thermo Fisher Scientific). For the pseudo-colored composite image of varying heights of encapsulated cells, images of the live-stained cells were captured every 5 μm of height. Then Z-stack images for each 100 μm were flattened using the EVOS software, and the flattened images were pseudo-colored and merged using ImageJ.
Cell proliferation assay. A cell proliferation assay was performed using Cell Counting Kit-8 (CCK-8, Dojindo Molecular Technologies) for 2D and 3D cell culture. Serum-free DMEM containing 10% CCK-8 was added to the gels (200 μL per well for 2D culture; 500 μL to the top of the gels for 3D culture) and incubated for 2 hours at 37° C. Subsequently, media were transferred to 96-well plates (150 μL per well) and their absorbance measured at 450 nm relative to control viabilities from day 0 for 2D cell culture and day 1 for 3D cell culture. Experiments were performed in triplicate.
Cytoskeleton staining. For 2D cell culture, the peptide and collagen gels (70 μL) were prepared as described above on the glass bottom of 35 mm dishes (7 mm glass diameter, MatTek). HDFs in Essential 8 Medium (1.5×10^5 cells per 3 mL) were added to the dishes and incubated at 37° C. for 24 hours. Cells were fixed and permeabilized with 4% paraformaldehyde and 0.1% Triton X-100 in PBS for 15 min, and then blocked with 1% BSA in PBS. Cells were incubated with anti-vinculin antibody (hVIN-1, Sigma) for 1 hour at room temperature. Then, a goat anti-mouse IgG (H+L) cross-adsorbed secondary antibody, Rhodamine Red-X (2 μg mL^−1, Thermo Fisher Scientific), Alexa Fluor 488 phalloidin (5 units mL^−1, Thermo Fisher Scientific), and Hoechst 33342 (5 μg mL^−1, Invitrogen) in PBS were added to the dishes and incubated for 1 hour at room temperature. After washing, cells were visualized using an EVOS FL Auto Cell Imaging System.

The structures appear in SMILES notation. Non-standard residues stand in square brackets, D forms with d. Residues, ends and D or L forms follow the SMILES beside them.

For the molecule `CC(=O)N[C@H](C(=O)N[C@@H](CCC(=O)O)C(=O)N[C@H](C(=O)N[C@@H](CO)C(=O)N[C@H](C(=O)N[C@@H](CO)C(=O)N[C@H](C(=O)N[C@@H](CCC(=O)O)C(=O)N[C@H](C(=O)N1CCC[C@@H]1C(=O)N1CCC[C@H]1C(=O)N[C@H](C(=O)N[C@@H](CCC(=O)O)C(=O)N[C@H](C(=O)N[C@@H](CO)C(=O)N[C@H](C(=O)N[C@@H](CCC(=O)O)C(=O)N[C@H](C(=O)N[C@@H](CCC(=O)O)C(=O)N[C@H](C(=O)NCC(=O)NCC(=O)NCC(=O)NCC(=O)N[C@@H](CCCNC(=N)N)C(=O)NCC(=O)N[C@@H](CC(=O)O)C(=O)N[C@H](C(N)=O)C(C)C)C(C)C)C(C)C)C(C)C)C(C)C)[C@@H](C)O)C(C)C)C(C)C)C(C)C)C(C)C)C(C)C` [AcVES3-RGDV] (Ac-VEVSVSVEV[dP]PTEVSVEVEVGGGGRGDV-NH2), the “storage moduli after multiple physical disruptions” value in data set [1] was “constant”. In addition, the “cell proliferation of HDFs, 2D culture” value in data set [2] (Essential 8 Medium, up to day 4) is “proliferated to a similar degree as cells on collagen gels”. For the same molecule, the “cytoskeleton organization and focal adhesions” value in data set [2] (day 1, Essential 8 Medium) was “promoted organization of actin stress fibers and focal contacts”. Also, the “cell adhesion of HDFs on gel surface” value in data set [2] (day 1) is “strongly attached and spread”; in data set [2] (day 4), “remained adherent and viable”.
